# Tests used:
# [1] = target: T1, Indoleamine 2,3-dioxygenase 1 (Homo sapiens, UniProt P14902); experiment: Inhibition of IDO (unknown origin)
# [2] = target: T1, Indoleamine 2,3-dioxygenase 1; experiment: Inhibition of recombinant human IDO using L-Trp as substrate incubated for 60 mins
# Mus musculus [3] = experiment: Antiinflammatory Activity in C57BL/6 mouse TNFalpha-induced mouse model of SIRS assessed as reduction in TNF-induced body temperature at 0.124 mg/kg, iv pretreated for 15 mins followed by TNFalpha-stimulation and measured up to 4 days by thermometric method relative to control; format: functional; set-up: scale not given: the % may be the effect or the level left
# [4] = target: T2, Receptor-interacting serine/threonine-protein kinase 1 (Homo sapiens, UniProt Q13546); experiment: Inhibition of recombinant human GST-tagged RIPK1 (1 to 479 residues) incubated for 4 hrs by ADP-Glo assay
# T2 sequence (Q13546 whole entry): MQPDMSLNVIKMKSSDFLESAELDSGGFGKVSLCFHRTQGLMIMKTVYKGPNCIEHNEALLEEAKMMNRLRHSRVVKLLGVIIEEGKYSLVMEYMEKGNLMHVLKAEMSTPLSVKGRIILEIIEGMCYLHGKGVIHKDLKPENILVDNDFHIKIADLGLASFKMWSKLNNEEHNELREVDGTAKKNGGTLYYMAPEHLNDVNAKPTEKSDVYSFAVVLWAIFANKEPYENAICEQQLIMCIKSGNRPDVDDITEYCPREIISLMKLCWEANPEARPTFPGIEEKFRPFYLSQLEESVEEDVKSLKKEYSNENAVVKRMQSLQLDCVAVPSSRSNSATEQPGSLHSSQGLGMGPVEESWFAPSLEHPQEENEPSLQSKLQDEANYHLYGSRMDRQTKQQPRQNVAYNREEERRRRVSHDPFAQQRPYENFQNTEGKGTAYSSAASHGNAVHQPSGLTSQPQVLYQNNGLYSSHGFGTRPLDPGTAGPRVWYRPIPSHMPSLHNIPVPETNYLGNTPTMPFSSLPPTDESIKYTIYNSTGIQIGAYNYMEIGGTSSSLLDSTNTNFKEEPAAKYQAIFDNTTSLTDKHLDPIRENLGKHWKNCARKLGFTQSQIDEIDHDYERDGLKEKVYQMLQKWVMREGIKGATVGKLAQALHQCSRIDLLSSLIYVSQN
# MEF = experiment: Anti-neprotic activity in mouse MEF cells assessed as reduction in TNF-induced necroptosis and measured every 1 hr in presence of z-VAD by SYTOX Green dye based fluorescence assay; format: functional, cell-based
# L929 = experiment: Anti-neprotic activity in mouse L929 cells assessed as reduction in TNF-induced necroptosis and measured every 1 hr by SYTOX Green dye based fluorescence assay; format: functional, cell-based; details: L929, 1 h
# Jurkat = experiment: Anti-neprotic activity in human Jurkat cells FADD defient assessed as reduction in TNFalpha-induced necroptosis preincubated for 30 mins followed by addition of TNFalpha-stimulation and further incubated for over night by Cell Titer Glo assay; format: functional, cell-based
# [5] = target: T3, Receptor-interacting serine/threonine-protein kinase 1 (Homo sapiens) (UniProt Q13546)
# T3 sequence (whole entry): T2 sequence (Q13546 whole entry)
# [6] = target: T2, Receptor-interacting serine/threonine-protein kinase 1; experiment: Inhibition of RIPK1 (unknown origin)
# HT-29 = experiment: Anti-neprotic activity in human HT-29 cells assessed as reduction in TSZ-induced necroptosis incubated for 24 hrs by cell titer glo-based luminescence assay; format: functional; details: HT-29, 24 h
# Fibroblast = experiment: Anti-neprotic activity in mouse fibroblasts cells; format: functional, cell-based
# [7] = target: T2, Receptor-interacting serine/threonine-protein kinase 1; experiment: Inhibition of human RIPK1 by ADP-Glo assay
# [8] = target: T2, Receptor-interacting serine/threonine-protein kinase 1; experiment: Inhibition of GSK657 binding to human RIPK1 (1 to 328) by fluorescence Polarization assay
# Mus musculus [9] = experiment: Antiinflammatory Activity in C57BL/6 mouse TNFalpha-induced mouse model of SIRS at 30 mg/kg, ip pretreated for 15 mins followed by TNFalpha-stimulation and measured after 72 hrs relative to control; format: functional
# [10] = target: T4, Receptor-interacting serine/threonine-protein kinase 3 (Homo sapiens, UniProt Q9Y572); experiment: Inhibition of recombinant RIPK3 (unknown origin) using MBP as substrate preincubated for 15 mins followed by addition of MBP and measured after 120 min ADP-Glo kinase assay
# T4 sequence (Q9Y572 whole entry): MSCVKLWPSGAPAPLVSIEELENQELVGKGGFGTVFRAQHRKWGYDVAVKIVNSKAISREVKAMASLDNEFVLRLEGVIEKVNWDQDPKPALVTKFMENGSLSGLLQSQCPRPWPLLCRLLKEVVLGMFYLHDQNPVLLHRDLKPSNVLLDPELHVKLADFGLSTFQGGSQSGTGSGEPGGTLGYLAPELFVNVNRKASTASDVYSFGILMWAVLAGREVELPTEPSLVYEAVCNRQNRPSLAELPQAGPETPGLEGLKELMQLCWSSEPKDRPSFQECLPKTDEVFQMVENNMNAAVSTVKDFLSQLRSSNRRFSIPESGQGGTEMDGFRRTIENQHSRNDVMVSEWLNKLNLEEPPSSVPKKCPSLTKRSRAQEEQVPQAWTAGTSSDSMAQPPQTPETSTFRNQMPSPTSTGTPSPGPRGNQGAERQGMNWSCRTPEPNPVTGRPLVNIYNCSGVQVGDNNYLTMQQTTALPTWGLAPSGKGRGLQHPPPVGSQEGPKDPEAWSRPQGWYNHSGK
# Mus musculus [11] = experiment: Antiinflammatory Activity in C57BL/6 mouse TNFalpha-induced mouse model of SIRS assessed as reduction in TNF-induced body temperature at 0.226 mg/kg, iv pretreated for 15 mins followed by TNFalpha-stimulation and measured up to 4 days by thermometric method relative to control; format: functional; set-up: scale not given: the % may be the effect or the level left
# [12] = target: T5, Receptor-interacting serine/threonine-protein kinase 2 (Homo sapiens, UniProt O43353); experiment: Inhibition of human RIPK2 using MBP as substrate by [gamma33-ATP] based radiometric assay
# T5 sequence (O43353 whole entry): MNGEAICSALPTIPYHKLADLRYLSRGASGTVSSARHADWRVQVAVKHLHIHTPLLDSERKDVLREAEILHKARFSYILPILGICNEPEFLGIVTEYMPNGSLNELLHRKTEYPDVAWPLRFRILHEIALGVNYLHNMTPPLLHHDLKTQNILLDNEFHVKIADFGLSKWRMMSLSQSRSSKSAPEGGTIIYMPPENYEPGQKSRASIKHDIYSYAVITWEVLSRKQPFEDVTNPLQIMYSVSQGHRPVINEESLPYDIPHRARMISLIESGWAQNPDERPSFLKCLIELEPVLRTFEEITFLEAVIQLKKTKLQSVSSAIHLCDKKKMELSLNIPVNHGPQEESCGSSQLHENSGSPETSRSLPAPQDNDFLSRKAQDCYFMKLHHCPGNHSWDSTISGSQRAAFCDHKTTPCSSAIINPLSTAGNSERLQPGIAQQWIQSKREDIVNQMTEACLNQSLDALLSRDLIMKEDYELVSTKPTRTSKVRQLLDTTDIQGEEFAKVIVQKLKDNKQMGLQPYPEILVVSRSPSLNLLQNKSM
# [13] = target: T2, Receptor-interacting serine/threonine-protein kinase 1; experiment: Inhibition of human RIPK1 using MBP as substrate by [gamma33-ATP] based radiometric assay
# [14] = target: T4, Receptor-interacting serine/threonine-protein kinase 3; experiment: Inhibition of human full length N-terminal GST-tagged RIPK3 expressed in baculovirus infected sf9 insect cells assessed as reduction in MBP phosphorylation using MBP as substrate by kinase-Glo luminescence assay
# [15] = target: T4, Receptor-interacting serine/threonine-protein kinase 3; experiment: Inhibition of human RIPK3 using MBP as substrate by [gamma33-ATP] based radiometric assay
# [16] = target: T6, Dual serine/threonine and tyrosine protein kinase (Homo sapiens, UniProt Q6XUX3); experiment: Inhibition of human RIPK5 using MBP as substrate by [gamma33-ATP] based radiometric assay
# T6 sequence (Q6XUX3 whole entry): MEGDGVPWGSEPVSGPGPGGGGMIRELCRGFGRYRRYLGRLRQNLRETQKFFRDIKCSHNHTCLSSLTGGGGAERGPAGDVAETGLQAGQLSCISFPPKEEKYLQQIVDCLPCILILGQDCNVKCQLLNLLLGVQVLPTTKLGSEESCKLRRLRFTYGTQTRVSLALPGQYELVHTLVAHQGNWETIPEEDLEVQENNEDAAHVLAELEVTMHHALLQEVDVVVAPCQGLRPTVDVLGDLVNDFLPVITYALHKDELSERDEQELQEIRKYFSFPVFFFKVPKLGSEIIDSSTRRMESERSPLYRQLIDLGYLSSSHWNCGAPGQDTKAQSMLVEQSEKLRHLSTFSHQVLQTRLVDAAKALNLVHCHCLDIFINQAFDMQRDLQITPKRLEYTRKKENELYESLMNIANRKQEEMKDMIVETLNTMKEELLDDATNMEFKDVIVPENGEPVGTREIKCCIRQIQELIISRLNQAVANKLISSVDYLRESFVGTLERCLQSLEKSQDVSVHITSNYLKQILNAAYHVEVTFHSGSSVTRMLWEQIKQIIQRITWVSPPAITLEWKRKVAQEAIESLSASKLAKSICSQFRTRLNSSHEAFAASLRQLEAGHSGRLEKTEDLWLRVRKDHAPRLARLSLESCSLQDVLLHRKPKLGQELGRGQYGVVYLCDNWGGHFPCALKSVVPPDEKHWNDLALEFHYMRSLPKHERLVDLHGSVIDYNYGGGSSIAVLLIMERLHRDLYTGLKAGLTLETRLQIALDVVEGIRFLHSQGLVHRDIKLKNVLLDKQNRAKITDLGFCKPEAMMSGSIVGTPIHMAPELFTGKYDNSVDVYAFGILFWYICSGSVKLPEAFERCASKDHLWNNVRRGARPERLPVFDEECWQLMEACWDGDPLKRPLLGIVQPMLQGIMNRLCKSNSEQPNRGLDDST
# [17] = target: T5, Receptor-interacting serine/threonine-protein kinase 2; experiment: Inhibition of recombinant human His-tagged RIPK2 (8 to 317 residues) incubated for 1 hr by ADP-Glo assay
# [18] = target: Tyrosine-protein kinase ABL1 (Homo sapiens, UniProt P00519); experiment: Inhibition of Abl (unknown origin) incubated for 1 hr by ADP-Glo assay
# Tyrosine-protein kinase ABL1, sequence (P00519 whole entry, the tested form may be a part): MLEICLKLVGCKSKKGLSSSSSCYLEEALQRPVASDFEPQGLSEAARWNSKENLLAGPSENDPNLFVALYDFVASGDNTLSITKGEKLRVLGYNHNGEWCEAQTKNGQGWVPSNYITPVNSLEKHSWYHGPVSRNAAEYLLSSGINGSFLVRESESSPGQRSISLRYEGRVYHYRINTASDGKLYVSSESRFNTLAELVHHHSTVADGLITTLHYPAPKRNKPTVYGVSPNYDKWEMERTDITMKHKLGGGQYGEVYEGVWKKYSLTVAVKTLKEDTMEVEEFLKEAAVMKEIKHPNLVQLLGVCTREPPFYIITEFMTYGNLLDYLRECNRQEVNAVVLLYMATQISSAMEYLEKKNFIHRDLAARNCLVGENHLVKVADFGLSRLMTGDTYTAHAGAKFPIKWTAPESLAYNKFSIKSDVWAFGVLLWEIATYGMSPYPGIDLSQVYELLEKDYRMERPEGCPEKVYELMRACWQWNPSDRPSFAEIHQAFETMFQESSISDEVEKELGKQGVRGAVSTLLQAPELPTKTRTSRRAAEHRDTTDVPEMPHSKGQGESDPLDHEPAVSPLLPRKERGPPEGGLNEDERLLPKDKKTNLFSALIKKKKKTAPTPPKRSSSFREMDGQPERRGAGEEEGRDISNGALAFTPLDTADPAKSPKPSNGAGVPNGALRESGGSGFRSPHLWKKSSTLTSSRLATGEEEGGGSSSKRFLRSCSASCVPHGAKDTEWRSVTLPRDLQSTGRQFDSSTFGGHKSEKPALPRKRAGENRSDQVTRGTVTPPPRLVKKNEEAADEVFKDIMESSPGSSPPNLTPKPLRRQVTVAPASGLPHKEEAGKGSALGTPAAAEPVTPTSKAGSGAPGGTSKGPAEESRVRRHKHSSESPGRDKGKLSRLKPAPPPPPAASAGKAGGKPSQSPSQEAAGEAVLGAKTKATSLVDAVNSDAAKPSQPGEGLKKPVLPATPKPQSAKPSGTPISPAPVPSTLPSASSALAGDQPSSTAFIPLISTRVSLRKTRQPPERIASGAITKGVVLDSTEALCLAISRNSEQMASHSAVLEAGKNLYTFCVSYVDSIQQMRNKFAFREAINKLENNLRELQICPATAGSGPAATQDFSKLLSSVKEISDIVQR
# [19] = target: T7, Mixed lineage kinase domain-like protein (Homo sapiens) (UniProt Q8NB16)
# T7 sequence (whole entry): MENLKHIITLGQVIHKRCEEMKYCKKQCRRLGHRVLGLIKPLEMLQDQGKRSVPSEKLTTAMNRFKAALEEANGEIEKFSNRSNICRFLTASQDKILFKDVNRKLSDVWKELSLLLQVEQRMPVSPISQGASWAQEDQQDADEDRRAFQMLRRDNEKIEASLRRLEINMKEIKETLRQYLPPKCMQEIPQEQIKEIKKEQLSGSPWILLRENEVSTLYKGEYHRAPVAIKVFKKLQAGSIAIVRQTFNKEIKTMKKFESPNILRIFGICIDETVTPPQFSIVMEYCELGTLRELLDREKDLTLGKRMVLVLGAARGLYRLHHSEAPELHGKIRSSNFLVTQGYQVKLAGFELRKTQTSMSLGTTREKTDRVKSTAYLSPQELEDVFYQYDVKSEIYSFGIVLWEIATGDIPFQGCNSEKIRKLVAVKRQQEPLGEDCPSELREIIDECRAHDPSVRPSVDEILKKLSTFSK
# [20] = target: T8, Receptor-interacting serine/threonine-protein kinase 1 (Mus musculus, UniProt Q60855); experiment: Inhibition of mouse RIPK1; details: read-out: Ki(app)
# T8 sequence (Q60855 whole entry): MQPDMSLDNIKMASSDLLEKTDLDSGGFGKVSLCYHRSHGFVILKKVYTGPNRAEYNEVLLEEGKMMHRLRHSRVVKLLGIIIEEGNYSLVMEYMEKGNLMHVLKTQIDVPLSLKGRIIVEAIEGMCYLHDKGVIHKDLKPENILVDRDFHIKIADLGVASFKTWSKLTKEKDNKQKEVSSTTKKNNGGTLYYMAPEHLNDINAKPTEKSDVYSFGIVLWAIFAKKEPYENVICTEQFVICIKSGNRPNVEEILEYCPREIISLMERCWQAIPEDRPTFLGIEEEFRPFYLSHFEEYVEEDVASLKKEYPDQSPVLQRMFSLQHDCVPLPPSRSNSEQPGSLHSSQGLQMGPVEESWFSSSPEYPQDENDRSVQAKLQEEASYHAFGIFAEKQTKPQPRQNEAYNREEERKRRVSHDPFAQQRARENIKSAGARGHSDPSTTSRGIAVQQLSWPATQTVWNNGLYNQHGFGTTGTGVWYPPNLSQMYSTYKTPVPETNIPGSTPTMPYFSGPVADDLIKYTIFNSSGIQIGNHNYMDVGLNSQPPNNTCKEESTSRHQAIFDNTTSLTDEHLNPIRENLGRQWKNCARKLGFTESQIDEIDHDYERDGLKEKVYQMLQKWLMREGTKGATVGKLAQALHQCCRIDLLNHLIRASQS
# Mus musculus [21] = experiment: Antiinflammatory activity in TNF-induced mouse model of SIRS assessed as reduction in TNF-induced body temperature at 5 mg/kg, po and measured after 2 to 4 hrs by infrared ear Thermometric method relative to control; format: functional; set-up: scale not given: the % may be the effect or the level left
# T1 sequence (P14902 whole entry): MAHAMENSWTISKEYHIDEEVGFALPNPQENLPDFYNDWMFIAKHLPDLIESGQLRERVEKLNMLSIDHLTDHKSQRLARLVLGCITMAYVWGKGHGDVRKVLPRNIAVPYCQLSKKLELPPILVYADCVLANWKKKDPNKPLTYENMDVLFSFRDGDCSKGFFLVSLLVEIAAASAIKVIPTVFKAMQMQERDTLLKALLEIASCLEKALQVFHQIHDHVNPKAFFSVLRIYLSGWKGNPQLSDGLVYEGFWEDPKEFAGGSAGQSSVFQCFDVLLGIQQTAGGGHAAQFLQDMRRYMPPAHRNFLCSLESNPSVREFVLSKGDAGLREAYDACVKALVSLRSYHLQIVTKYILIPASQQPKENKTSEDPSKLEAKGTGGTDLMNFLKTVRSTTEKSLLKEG
smiles,measurement,setting,value
CN1C(=O)C(Cc2c[nH]c3ccccc23)NC1=S (centres undefined) [NECROSTATIN],IC50,[1],100000 nM
same,IC50,[2],110 nM
Cn1cc(-c2ccc3c(c2F)CCN3C(=O)Cc2cccc(C(F)(F)F)n2)c2c(N)ncnc21,Activity,Mus musculus [3],100%
same,IC50,[4],69 nM
same,IC50,MEF,4 nM
same,IC50,L929,0.1 nM
Nc1nccnc1C(=O)O[C@@H](C(=O)Nc1ccc(F)cc1)c1ccccc1,IC50,Jurkat,> 40000 nM
same,ΔTm,[5],-0.15 °C
Cc1ccc(O)cc1Nc1ccnc2cc(-c3ccccn3)ccc12,IC50,[6],73.6 nM
Cn1c(=O)c2c(nc(S(C)(=O)=O)n2C)n(CC#Cc2cccc(O)c2)c1=O,IC50,HT-29,2 nM
CN(c1ccc(NC(=O)Nc2ccc(OC(F)(F)F)cc2)cc1)c1ccnc(Nc2cccc(S(N)(=O)=O)c2)n1 [GW806742X],IC50,Fibroblast,< 50 nM
O=C1NC(=S)NC1Cc1c[nH]c2ccccc12 (centres undefined),IC50,[2],110 nM
CNC(=O)c1ccc2c(c1)ncn2-c1ccc(CC(=O)OC(C)(C)C)cc1,IC50,[7],0.3 nM
same,IC50,[8],0.9 nM
Cn1c(=O)c2c(nc(S(C)(=O)=O)n2C)n(C)c1=O,IC50,HT-29,390 nM
COc1nccnc1NS(=O)(=O)c1ccc(NC(=O)/C=C/c2ccc([N+](=O)[O-])s2)cc1,IC50,HT-29,< 200 nM
CC(=O)Nc1nc2ccc(-c3cnc(Cl)c(CC(=O)Cc4ccccc4)c3)cc2s1,Activity,Mus musculus [9],90%
same,IC50,[10],> 1000 nM
Cn1cc(-c2ccc3c(c2)CCN3C(=O)Cc2cccc(C(F)(F)F)c2)c2c(N)ncnc21,IC50,L929,0.4 nM
same,Activity,Mus musculus [11],100%
CC(C)(C)c1nc(-c2cccc(NS(=O)(=O)c3c(F)cccc3F)c2F)c(-c2ccnc(N)n2)s1 [DABRAFENIB],IC50,[12],77 nM
same,IC50,[13],53200 nM
same,IC50,[14],250 nM
same,IC50,[15],2 nM
same,IC50,[16],29400 nM
Cc1ccc(CCCCN2C(=O)N[C@H](Cc3c[nH]c4c(Cl)cccc34)C2=O)cc1C#Cc1cnc2cccnn12,IC50,[17],1190 nM
same,IC50,[18],> 1000 nM
C[C@@H](Oc1cc(-c2cnn(C3CCNCC3)c2)cnc1N)c1c(Cl)ccc(F)c1Cl [CRIZOTINIB],ΔTm,[19],5.63 °C
same,IC50,Jurkat,> 40000 nM
same,ΔTm,[5],0.75 °C
COc1ccc2c(c1)CC[C@H](NC(=O)c1nc3n(n1)[C@H](c1ccccc1)CC3)C(=O)N2C,Ki,[20],189 nM
same,Activity,Mus musculus [21],100%
Cc1cc(-c2cnc(N)c3c(-c4ccc5scnc5c4)csc23)n(C)n1,IC50,[7],6.5 nM
same,IC50,[8],8.6 nM
